The values that follow come from patent US8846694B2, “Pyrrolidone derivatives for use as MetAP-2 inhibitors” (Merck Patent GmbH, priority 2008, dated 2014).

Counter-ions that a name gives are not always drawn.

The test deals with MetAP-2 (Homo sapiens, UniProt P50579). The test is described as follows: MetAP-2 activity measurement (coupled enzymatic reactions, substrate Met-Arg-Ser, photometric at 450 nm). Conditions: read-out: IC50 enzyme (Inhibition of MetAP-2). The class given is biochemical. The gist of the method: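 Human MetAP-2 cleaves Met-Arg-Ser; the freed methionine is oxidized by L-amino acid oxidase, and the resulting H2O2 drives peroxidase oxidation of dianisidine, read continuously at 450 nm. Activity is taken as the slope in the visually linear region.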
MetAP-2, sequence (P50579 whole entry, species assumed): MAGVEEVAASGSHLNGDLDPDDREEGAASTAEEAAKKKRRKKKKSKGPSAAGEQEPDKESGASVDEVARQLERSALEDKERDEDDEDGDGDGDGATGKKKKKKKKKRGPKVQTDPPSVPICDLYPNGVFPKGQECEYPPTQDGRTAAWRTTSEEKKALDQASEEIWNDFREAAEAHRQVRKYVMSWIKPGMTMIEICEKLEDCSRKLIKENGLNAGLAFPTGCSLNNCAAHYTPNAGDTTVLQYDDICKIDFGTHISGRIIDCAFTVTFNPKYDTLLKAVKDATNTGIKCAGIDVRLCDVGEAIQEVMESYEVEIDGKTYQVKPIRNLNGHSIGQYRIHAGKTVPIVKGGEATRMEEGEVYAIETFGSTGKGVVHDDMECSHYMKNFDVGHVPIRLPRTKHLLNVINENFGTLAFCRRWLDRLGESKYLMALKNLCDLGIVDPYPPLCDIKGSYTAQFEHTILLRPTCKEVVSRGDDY
One may read the IC50 as the concentration at which inhibition is half-maximal. Consider `COC(=O)c1cccc(-c2ncc(OC[C@H]3CCCN3c3ncnc4[nH]cnc34)cn2)c1` [A65, Methyl 3-{5-[(R)-1-(9H-purin-6-yl)pyrrolidin-2-yl-methoxy]pyrimidin-2-yl}benzoate], for which the IC50 lay in the range of 10 to 1000 nM.

For the compound `NC(=O)C[C@@H](N)C(=O)Nc1ccc2cccc(OC[C@H]3CCCN3c3ncnc4[nH]cnc34)c2c1` [A177, (R)-2-Amino-N1-{8-[(R)-1-(9H-purin-6-yl)-pyrrolidin-2-ylmethoxy]naphthalen-2-yl}succinamide], the half-inhibitory concentration (IC50) was 1000 to 10000 nM.

Turning to `NC(=O)CC[C@H](N)C(=O)Nc1ccc2cccc(OC[C@H]3CCCN3c3ncnc4[nH]cnc34)c2c1` [A165, N-(1-({8-[(R)-1-(9H-Purin-6-yl)pyrrolidin-2-yl-methoxy]naphthalen-2-yl})-(S)-2-aminopentan-5-amide * HCl], the IC50 fell in the range of 1000 to 10000 nM.

In the case of `CNC(=O)c1cc(Oc2ccc(CNC(=O)Nc3cc(C(F)(F)F)ccc3OCC3CCCN3c3ncnc4[nH]cnc34)cc2)ccn1` (centres unmarked) [A34, N-Methyl-4-[4-(3-{2-[1-(9H-purin-6-yl)pyrrolidin-2-ylmethoxy]-5-trifluoromethyl-phenyl}ureidomethyl)phenoxy]pyridine-2-carboxamide], the IC50 is above 10000 nM.

As for `Nc1ccc2cccc(OC[C@H]3CCCN3c3ncnc4[nH]cnc34)c2c1` [A144, 8-[(R)-1-(9H-Purin-6-yl)pyrrolidin-2-yl-methoxy]naphthalen-2-ylamine], the 50% inhibitory concentration (IC50) was in the range of 10 to 1000 nM.

Consider `O=C(Cn1c(C(=O)NCCc2ccc(F)cc2)c(OC[C@H]2CCCN2c2ncnc3[nH]cnc23)c2cc(F)ccc21)NCCc1ccc(F)cc1` [A200, N-[2-(4-Fluorophenyl)ethyl]-5-fluoro-1-{[2-(4-fluorophenyl)ethylcarbamoyl]methyl}-3-[(R)-1-(9H-purin-6-yl)pyrrolidin-2-ylmethoxy]-1H-indole-2-carboxamide], for which the IC50 was above 10000 nM.

As to `CC(O)CNC(=O)c1cc(OC[C@H]2CCCN2c2ncnc3[nH]cnc23)c2ccccc2n1` (stereo partly drawn) [A68, N-(2-Hydroxypropyl)-4-[(R)-1-(9H-purin-6-yl)-pyrrolidin-2-ylmethoxy]quinoline-2-carboxamide hydrochloride], the IC50 was in the range of 10 to 1000 nM.

On to `c1ccc2c(OC[C@H]3CCCN3c3ncnc4[nH]cnc34)c(CN3CCCCC3)ccc2c1` [A61, 6-[(R)-2-(2-Piperidin-1-ylmethylnaphthalen-1-yloxymethyl)pyrroiidin-1-yl]-9H-purine], for which the IC50 is above 10000 nM.

As for `COc1ccc(CCOc2cc3c(OC[C@H]4CCCN4c4ncnc5[nH]cnc45)ccc(CCc4ccc(OC)cc4)c3cc2C(=O)N(C)C)cc1` [A152, N,N-Dimethyl-3-[2-(4-methoxyphenyl)ethoxy]-8-[2-(4-methoxyphenyl)ethyl]-5-[(R)-1-(9H-purin-6-yl)pyrrolidin-2-ylmethoxy]naphthalene-2-carboxamide], the IC50 was above 10000 nM.

For the compound `O=C(NC1CC1)c1cc(OC[C@H]2CCCN2c2ncnc3[nH]cnc23)c2ccccc2n1` [A14, N-cyclopropyl-4-[(R)-1-(9H-purin-6-yl)pyrrolidin-2-ylmethoxy]quinoline-2-carboxamide hydrochloride], the IC50 lay within 1000 to 10000 nM.

Turning to `O=CN1CCN(c2ccc3cccc(OC[C@H]4CCCN4c4ncnc5[nH]cnc45)c3c2)CC1` [A166, 4-{8-[(R)-1-(9H-Purin-6-yl)pyrrolidin-2-ylm-ethoxy]naphthalen-2-yl}piperazine-1-carbaldehyde], the IC50 was in the range of 10 to 1000 nM.

As to `F[C@H]1C[C@H](COc2cccc3ccccc23)N(c2ncnc3[nH]cnc23)C1` [A28, 6-[(2R,4S)-4-Fluoro-2-(naphthalen-1-yl-oxymethyl)pyrrolidin-1-yl]-9H-purine], the IC50 lay within 1000 to 10000 nM.

`c1cc(OC[C@H]2CCCN2c2ncnc3[nH]cnc23)c2cnccc2c1` [A87, 8-[(R)-1-(9H-Purin-6-yl)pyrrolidin-2-yl-methoxy]isoquinoline]: the IC50 was 10 to 1000 nM.

Regarding `COCCOc1cccc2c(OC[C@H]3CCCN3c3ncnc4[nH]cnc34)cccc12` [A58, 6-{(R)-2-[5-(2-Methoxyethoxy)naphthalen-1-yl-oxymethyl]pyrrolidin-1-yl}-9H-purine], the IC50 was in the range of 10 to 1000 nM.

For the compound `O=C1c2cccc(OC[C@H]3CCCN3c3ncnc4[nH]cnc34)c2CC[C@H]1Cc1cc[nH]n1` [A130, (S)-5-[(R)-1-(9H-Purin-6-yl)pyrrolidin-2-yl-methoxy]-2-(1H-pyrazol-3-ylmethyl)-3,4-dihydro-2H-naphthalen-1-one], the IC50 lay in the range of 10 to 1000 nM.

In the case of `O=C1CCCc2c(OC[C@H]3CCCN3c3ncnc4[nH]cnc34)cccc21` [A51], the IC50 fell in the range of 10 to 1000 nM.

Turning to `c1cc(OC[C@H]2CCCN2c2ncnc3[nH]cnc23)c2cc(N3CCOCC3)ccc2c1` [A146, 6-[(R)-2-(7-Morpholin-4-ylnaphthalen-1-yl-oxymethyl)pyrrolidin-1-yl]-9H-purine], the IC50 lay in the range of 10 to 1000 nM.

Consider `COc1cc2c(OC[C@H]3CCCN3c3ncnc4[nH]cnc34)ncnc2cc1OCc1ccccc1` [A45, 7-Benzyloxy-6-methoxy-4-[(R)-1-(9H-purin-6-yl)-pyrrolidin-2-ylmethoxy]quinazoline], for which the IC50 was above 10000 nM.

`O=S(=O)(O)c1ccc2cccc(NC[C@H]3CCCN3c3ncnc4[nH]cnc34)c2c1` [A132, 8-{[(R)-1-(9H-Purin-6-yl)pyrrolidin-2-yimethyl]-amino}naphthalene-2-sulfonic acid]: the IC50 was above 10000 nM.

On to `CC(=O)Nc1nc2ccc(CNC(=O)Nc3cc(C(F)(F)F)ccc3OCC3CCCN3c3ncnc4[nH]cnc34)cc2[nH]1` (centres unmarked) [A33, N-[6-(3-{2-[1-(9H-Purin-6-yl)pyrrolidin-2-yl-methoxy]-5-trifluoromethylphenyl}ureido-methyl)-1H-benzimidazol-2-yl]acetamide], for which the IC50 was above 10000 nM.

For `O=C(NCCCN1CCOCC1)c1cc(OC[C@H]2CCCN2c2ncnc3[nH]cnc23)c2ccccc2n1` [A150, N-(3-Morpholin-4-ylpropyl)-4-[(R)-1-(9H-purin-6-yl)pyrrolidin-2-ylmethoxy]quinoline-2-carboxamide], the IC50 was 10 to 1000 nM.

For `CC(C)(C)OC(=O)NCCCC[C@H](NC(=O)OCc1ccccc1)C(=O)N1CCc2cccc(OC[C@H]3CCCN3c3ncnc4[nH]cnc34)c2C1` [A193, tert-Butyl ((S)-5-benzyloxycarbonylamino-6-oxo-6-{8-[(R)-1-(9H-purin-6-yl)pyrrolidin-2-yl-methoxy]-3,4-dihydro-1H-isoquinolin-2-yl}hexyl)-carbamate], the IC50 was above 10000 nM.

With `Clc1cccc(/C=C/[C@H]2CCCN2c2ncnc3[nH]cnc23)c1` [A11, 6-{(R)-2-[(E)-2-(3-chlorophenyl)vinyl]pyrrolidin-1-yl}-9H-purine], the IC50 lay in the range of 1000 to 10000 nM.

In the case of `CC(=O)NC1CCN(C2CCc3cccc(OC[C@H]4CCCN4c4ncnc5[nH]cnc45)c3C2)C1` (stereo partly drawn) [A171, N-(1-{8-[(R)-1-(9H-Purin-6-yl)pyrrolidin-2-yl-methoxy]-1,2,3,4-tetrahydronaphthalen-2-yl}pyrrolidin-3-yl)acetamide], the IC50 lay within 1000 to 10000 nM.

Turning to `O=C(NCCCO)c1cc(OC[C@H]2CCCN2c2ncnc3[nH]cnc23)c2ccccc2n1` [A85, N-(3-Hydroxypropyl)-4-[(R)-1-(9H-purin-6-yl)-pyrrolidin-2-ylmethoxy]quinoline-2-carboxamide], the IC50 is 10 to 1000 nM.

With `CCCN1CCN(Cc2ccc(OC[C@H]3CCCN3c3ncnc4[nH]cnc34)c3ccccc23)CC1` [A110, 6-{(R)-2-[4-(4-Propylpiperazin-1-ylmethyl)-naphthalen-1-yloxymethyl]pyrrolidin-1-yl}-9H-purine], the IC50 was in the range of 10 to 1000 nM.
